What was measured:
db/db mice [1] = experiment: Inhibitory effect on development of diabetic nephropathy in db/db mice (urine albumin/creatinine ratio); type: in vivo; conditions: 100 mg/kg orally twice a day for 10 weeks
Procedure: Six weeks old male db/db mice (20 individuals) and non-diabetic type db/+m mice (10 individuals) were used. db/db Mice were divided into two groups (each 10 individuals), a test compound suspended in a 0.5% methylcellulose solution was orally administrated at 100 mg/kg to one group (test compound group) twice a day. On the other hand, a 0.5% methylcellulose solution alone was orally administrated to another group (control group) and db/+m mice twice a day. After continuing administration for 10 weeks, urine collection was performed for each mouse using a metabolism cage for 24 hours. Insoluble substances in collected urine samples were removed by centrifugal separation. The urine albumin/creatinine ratio which can be obtained by rectifying the urine albumin concentration by the urine creatinine concentration was evaluated as the index of the urine protein excretion. In addition, the urine albumin/creatinine ratio was calculated based on the formula below. Urine albumin/creatinine ratio=Urine albumin concentration/Urine creatinine concentration Urine albumin concentration was measured using a Murine Microalbuminurea ELISA Kit (Exocell Icc.), and urine creatinine concentration was measured using a commercial kit for creatinine (Wako). […] In addition, it is shown that * in the Table has a significant difference (p<0.05) compared with control group.

db/db mice [2] = experiment: Inhibitory effect on hypercoagulable state in db/db mice (plasma TAT level); type: in vivo; conditions: 100 mg/kg orally, one hour after administration
Procedure: Thirty two weeks old male db/db mice (11 individuals) and wild type +m/+m mice (6 individuals) were used. db/db Mice were divided into two groups, a 0.5% methylcellulose solution containing a test compound at 100 mg/kg was orally administrated to one group (test compound group, 6 individuals). On the other hand, a 0.5% methylcellulose solution alone was orally administrated to another group (control group, 5 individuals) and +m/+m mice. One hour after administration, mice were anesthetized with diethyl ether. […] Plasma thrombin-antithrombin III complex (TAT) level was measured using an EIA (enzyme immunoassay) kit (Dade behring). […] In addition, it is shown that * in the Table has a significant difference (p<0.05) compared with control group.

ICR mice = experiment: Acute toxicity test, tail vein administration; type: in vivo; conditions: male ICR mice, 24 hours
Procedure: Male ICR mice aged 7 weeks (SLC) were divided into several groups consisting of 5 mice. […] The solution was administered through the tail vein at an infusion rate of 1 mL/minute. Observations were performed at constant interval, and the survival rate was judged for 24 hours.

[3] = system: Normal human mesangial cells; experiment: Inhibitory effect on human FXa-induced human mesangial cell proliferation (DNA amount by fluorescence); type: cell-based; conditions: for Fluorescence intensity: FXa 20 nM, 111 hours culture
Procedure: Normal human mesangial cells were seeded at 10000 cells/200 μL of Mesangial cell growth medium/well in 96-well plates, and cultured in CO2 incubator (37° C., O2:CO2=95:5). One day after seeding, cells were rinsed with Mesangial cell basal medium containing 0.5% bovine serum albumin (not containing growth factors), and then replaced the medium with Mesangial cell basal medium containing 0.5% bovine serum albumin (not containing growth factors) which was containing human activated coagulation factor X (hereinafter referred to as FXa; Calbiochem) and a test compound of certain concentrations, and cultured for 111 hours in CO2 incubator (37° C., O2:CO2=95:5). After cultivation, cells were rinsed with Hank's balanced salt solution at 250 μL/well, and frozen preservation of the cells at −30° C. was carried out until the measurement of the amount of DNAs for every plate. For measurement of the amount of DNAs, fluorescence intensity (measurement condition: excitation 480 nm; emission 520 nm) was estimated using Cell Proliferation Assay Kit (Molecular Probe). […] In addition, it is shown that * in the Table has a significant difference (p<0.05) compared with the group which was added FXa alone.

Row | Structure (SMILES) | Inhibition of urine albumin excretion (in words) (db/db mice [1]) | Urine albumin/creatinine ratio (db/db mice [1]; 24 hours urine, * p<0.05 vs control group (0.386)) | Effect on plasma TAT level / hypercoagulable state (in words) (db/db mice [2]) | Plasma thrombin-antithrombin III complex level (db/db mice [2]; * p<0.05 vs control group (69.25)) | Number of death (ICR mice; Method B: 100 mg/10 mL/kg) | Inhibition of human FXa-induced mesangial cell proliferation (in words) ([3]; FXa-induced human mesangial cells) | Fluorescence intensity ([3]; test compound 1 μM, FXa alone 227.0, no FXa 186.8) | Fluorescence intensity ([3]; test compound 10 μM, * p<0.05 vs FXa alone (227.0)) | Number of death (ICR mice; Method A: 50 mg/10 mL/kg)
1 | CCCCOC(=O)COc1cc(-c2ccccc2S(C)(=O)=O)ccc1CCNS(=O)(=O)c1cc(C(=N)NO)ccc1O.Cl [Compound 48, n-Butyl [4-[2-[2-Hydroxy-5-(N-hydroxycarbamimidoyl)-benzenesulfonylamino]ethyl]-2′-methanesulfonylbiphenyl-3-yloxy]acetate hydrochloride] | inhibited urine albumin excretion significantly | 0.202* | decreased plasma TAT level significantly | 8.31* |  |  |  |  | 
2 | CS(=O)(=O)c1ccccc1-c1ccc(CCNS(=O)(=O)c2cc(C(=N)N)ccc2O)c(OCC(=O)O)c1.Cl [Compound 33, [4-[2-(5-Carbamimidoyl-2-hydroxybenzenesulfonylamino)-ethyl]-2′-methanesulfonoylbiphenyl-3-yloxy]acetic acidhydrochloride] |  |  |  |  | 0/5 | inhibited human FXa-induced mesangial cell proliferation concentration-dependently | 206.2 | 178.3* | 
3 | CS(=O)(=O)c1ccccc1-c1ccc(CCNS(=O)(=O)c2cc(C(=N)NO)ccc2O)c(OCC(=O)O)c1 [Compound 47, [4-[2-[2-Hydroxy-5-(N-hydroxycarbamimidoyl)benzenesulfonylamino]ethyl]-2′-methanesulfonylbiphenyl-3-yloxy]acetic acid] |  |  |  |  | 0/5 |  |  |  | 0/5

Reference: patent US7563822B2, “Agents for the prevention or treatment of renal diseases” (Kissei Pharmaceutical Co., Ltd., priority 2002, dated 2009)
